According to ChEMBL document CHEMBL3046008, “Phenolics and their antifungal role in grapevine wood decay: focus on the Botryosphaeriaceae family” (J Agric Food Chem, 2012):
pIC50: −log10 of the molar value. Calls of active or inactive are those of the source. The rule behind the calls is not given here.

Tests used:
Neofusicoccum parvum [1] = assay: Antifungal activity against Neofusicoccum parvum assessed as growth inhibition at 500 uM measured after 1 to 10 days relative to control; type: functional
Diplodia seriata [2] = assay: Antifungal activity against Diplodia seriata assessed as growth inhibition at 500 uM measured after 1 to 10 days relative to control; type: functional
Phaeoacremonium minimum = assay: Antifungal activity against Togninia minima SO21 assessed as susceptibility at 500 uM measured after 1 to 10 days; type: functional, organism-based
Diplodia seriata [3] = assay: Antifungal activity against Diplodia seriata assessed as mycelium seemed to be halted measured after 2 days environmental scanning electron microscopy; type: functional, organism-based
Diplodia seriata [4] = assay: Antifungal activity against Diplodia seriata assessed as mycelium denser around the initial plug and colonizing measured after 2 days by macroscopic analysis; type: functional, organism-based
Eutypa lata [5] = assay: Antifungal activity against Eutypa lata BX1-10 assessed as growth inhibition measured after 1 to 10 days; type: functional, organism-based
Neofusicoccum parvum [6] = assay: Antifungal activity against Neofusicoccum parvum assessed as growth inhibition measured after 1 to 10 days; type: functional, organism-based
Diplodia seriata [7] = assay: Antifungal activity against Diplodia seriata assessed as growth inhibition measured after 1 to 10 days; type: functional, organism-based
[8] = tested on: Phaeomoniella chlamydospora; assay: Antifungal activity against Phaeomoniella chlamydospora assessed as growth inhibition at 500 uM measured after 1 to 10 days relative to control; type: functional
Eutypa lata [9] = assay: Antifungal activity against Eutypa lata BX1-10 assessed as growth inhibition at 500 uM measured after 1 to 10 days relative to control; type: functional
Eutypa lata [10] = assay: Induction of Eutypa lata BX1-10 growth at 500 uM; type: functional, organism-based

Row | SMILES | growth inhibition (GI) (Neofusicoccum parvum [1]) | growth inhibition (GI) (Diplodia seriata [2]) | Activity (Phaeoacremonium minimum) | further results
1 | Oc1ccc([C@H]2Oc3cc(O)cc(/C=C/c4ccc5c(c4)[C@@H](c4cc(O)cc6c4[C@H](c4cc(O)cc(O)c4)[C@@H](c4ccc(O)cc4)O6)[C@H](c4ccc(O)cc4)O5)c3[C@@H]2c2cc(O)cc(O)c2)cc1 | Active | Active | inactive | 
2 | O=C(O[C@@H]1Cc2c(O)cc(O)cc2O[C@@H]1c1ccc(O)c(O)c1)c1cc(O)c(O)c(O)c1 |  |  | inactive | 
3 | COc1cc(/C=C/c2ccc(O)cc2)cc(OC)c1 [PTEROSTILBENE] | Active | Active | inactive | Activity (Diplodia seriata [3]): Active; Activity (Diplodia seriata [4]): Active; pIC50 (Eutypa lata [5]): 3.60; pIC50 (Neofusicoccum parvum [6]): 3.60; pIC50 (Diplodia seriata [7]): 3.79
4 | Oc1cc(O)c2c(c1)O[C@H](c1ccc(O)c(O)c1)[C@@H](O)C2 |  |  | inactive | 
5 | COc1cc(/C=C/C(=O)O)cc(OC)c1O |  |  | inactive | 
6 | O=C(/C=C/c1ccc(O)c(O)c1)O[C@@H]1C[C@](O)(C(=O)O)C[C@@H](O)[C@H]1O |  |  | inactive | 
7 | COc1cc(C(=O)O)cc(OC)c1O |  |  | inactive | 
8 | O=C(O)c1cc(O)c(O)c(O)c1 |  |  | inactive | 
9 | COc1cc(C(=O)O)ccc1O |  |  | inactive | 
10 | O=C(O)/C=C/c1ccc(O)cc1 |  |  | inactive | 
11 | Oc1ccc([C@H]2c3c(O)cc(O)cc3[C@H]3c4c(cc(O)cc4[C@@H]2c2cc(/C=C/c4cc(O)cc5c4[C@H](c4cc(O)cc(O)c4)[C@@H](c4ccc(O)cc4)O5)ccc2O)O[C@@H]3c2ccc(O)cc2)cc1 | Active | Active | inactive | 
12 | OC[C@H]1O[C@@H](Oc2cc(O)cc(/C=C/c3ccc(O)cc3)c2)[C@H](O)[C@@H](O)[C@@H]1O | Active | Active | inactive | 
13 | O=C(O)/C=C/c1ccc(O)c(O)c1 |  |  | inactive | 
14 | COc1cc(/C=C/C(=O)O)ccc1O [FERULATE] |  |  | inactive | fold change (FC) [8]: 1.4; fold change (FC) (Eutypa lata [9]): 2.2; fold change (FC) (Neofusicoccum parvum [1]): 1.5; fold change (FC) (Diplodia seriata [2]): 1.6
15 | Oc1cc(O)c2c(c1)O[C@H](c1ccc(O)c(O)c1)[C@H](O)C2 |  |  | inactive | 
16 | Oc1ccc(/C=C/c2cc(O)cc3c2[C@@H](c2cc(O)cc(O)c2)[C@H](c2ccc(O)cc2)O3)cc1 [EPSILON-VINIFERIN] | Active | Active | inactive | pIC50 (Diplodia seriata [7]): 3.59
17 | Oc1ccc([C@H]2c3c(O)cc(O)cc3[C@H]3c4c(cc(O)cc4[C@@H]2O)O[C@@H]3c2ccc(O)cc2)cc1 | Active | Active | inactive | 
18 | O=c1c(O)c(-c2ccc(O)c(O)c2)oc2cc(O)cc(O)c12 |  |  | inactive | Activity (Eutypa lata [10]): Active
19 | Oc1cc(O)cc(/C=C/c2ccc(O)c(O)c2)c1 [PICEATANNOL] | Active | Active | inactive | pIC50 (Diplodia seriata [7]): 3.52
20 | Oc1ccc(/C=C/c2cc(O)cc(O)c2)cc1 [RESVERATROL] |  |  | inactive | fold change (FC) (Eutypa lata [9]): 1.7; fold change (FC) (Neofusicoccum parvum [1]): 1.1; fold change (FC) (Diplodia seriata [2]): 1.6
21 | O=c1c(O)c(-c2ccc(O)cc2)oc2cc(O)cc(O)c12 |  |  | inactive | growth inhibition (GI) (Eutypa lata [9]): inactive
